The test deals with T1, ΔF508-CFTR (Homo sapiens, UniProt P13569, DEL508-508).
T1 construct: expressed in transfected cells
Put plainly: Membrane potential optical assay (FRET/VIPR), identification of correction compounds. The format is cell-based. The note with it: for Emax: relative efficacy. The source says:
I) Membrane Potential Optical Methods for Assaying ΔF508-CFTR Modulation Properties of Compounds
The optical membrane potential assay utilized voltage-sensitive FRET sensors described by Gonzalez and Tsien (See, Gonzalez, J. E. and R. Y. Tsien (1995) “Voltage sensing by fluorescence resonance energy transfer in single cells” Biophys J 69(4): 1272-80, and Gonzalez, J. E. and R. Y. Tsien (1997) “Improved indicators of cell membrane potential that use fluorescence resonance energy transfer” Chem Biol 4(4): 269-77) in combination with instrumentation for measuring fluorescence changes such as the Voltage/Ion Probe Reader (VIPR) (See, Gonzalez, J. E., K. Oades, et al. (1999) “Cell-based assays and instrumentation for screening ion-channel targets” Drug Discov Today 4(9): 431-439).
These voltage sensitive assays are based on the change in fluorescence resonant energy transfer (FRET) between the membrane-soluble, voltage-sensitive dye, DiSBAC2(3), and a fluorescent phospholipid, CC2-DMPE, which is attached to the outer leaflet of the plasma membrane and acts as a FRET donor. Changes in membrane potential (Vm) cause the negatively charged DiSBAC2(3) to redistribute across the plasma membrane and the amount of energy transfer from CC2-DMPE changes accordingly. The changes in fluorescence emission were monitored using VIPR™ II, which is an integrated liquid handler and fluorescent detector designed to conduct cell-based screens in 96- or 384-well microtiter plates.
Identification of Correction Compounds
To identify small molecules that correct the trafficking defect associated with ΔF508-CFTR; a single-addition HTS assay format was developed. The cells were incubated in serum-free medium for 16 hrs at 37° C. in the presence or absence (negative control) of test compound. As a positive control, cells plated in 384-well plates were incubated for 16 hrs at 27° C. to “temperature-correct” ΔF508-CFTR. The cells were subsequently rinsed 3× with Krebs Ringers solution and loaded with the voltage-sensitive dyes. To activate ΔF508-CFTR, 10 μM forskolin and the CFTR potentiator, genistein (20 μM), were added along with Cl^−-free medium to each well. The addition of Cl^−-free medium promoted Cl^− efflux in response to ΔF508-CFTR activation and the resulting membrane depolarization was optically monitored using the FRET-based voltage-sensor dyes.
NIH3T3 mouse fibroblasts stably expressing ΔF508-CFTR are used for optical measurements of membrane potential. The cells are maintained at 37° C. in 5% CO2 and 90% humidity in Dulbecco's modified Eagle's medium supplemented with 2 mM glutamine, 10% fetal bovine serum, 1×NEAA, β-ME, 1× pen/strep, and 25 mM HEPES in 175 cm^2 culture flasks. For all optical assays, the cells were seeded at 30,000/well in 384-well matrigel-coated plates and cultured for 2 hrs at 37° C. before culturing at 27° C. for 24 hrs. for the potentiator assay. For the correction assays, the cells are cultured at 27° C. or 37° C. with and without compounds for 16-24 hours B) Electrophysiological Assays for assaying ΔF508-CFTR modulation properties of compounds

A word on the EC50: it is the concentration needed to bring the measured effect to its halfway point. By Emax is commonly meant the greatest response seen or fitted, relative to the assay's reference.

T1 sequence (P13569 with tags, fused parts or gaps DEL508-508): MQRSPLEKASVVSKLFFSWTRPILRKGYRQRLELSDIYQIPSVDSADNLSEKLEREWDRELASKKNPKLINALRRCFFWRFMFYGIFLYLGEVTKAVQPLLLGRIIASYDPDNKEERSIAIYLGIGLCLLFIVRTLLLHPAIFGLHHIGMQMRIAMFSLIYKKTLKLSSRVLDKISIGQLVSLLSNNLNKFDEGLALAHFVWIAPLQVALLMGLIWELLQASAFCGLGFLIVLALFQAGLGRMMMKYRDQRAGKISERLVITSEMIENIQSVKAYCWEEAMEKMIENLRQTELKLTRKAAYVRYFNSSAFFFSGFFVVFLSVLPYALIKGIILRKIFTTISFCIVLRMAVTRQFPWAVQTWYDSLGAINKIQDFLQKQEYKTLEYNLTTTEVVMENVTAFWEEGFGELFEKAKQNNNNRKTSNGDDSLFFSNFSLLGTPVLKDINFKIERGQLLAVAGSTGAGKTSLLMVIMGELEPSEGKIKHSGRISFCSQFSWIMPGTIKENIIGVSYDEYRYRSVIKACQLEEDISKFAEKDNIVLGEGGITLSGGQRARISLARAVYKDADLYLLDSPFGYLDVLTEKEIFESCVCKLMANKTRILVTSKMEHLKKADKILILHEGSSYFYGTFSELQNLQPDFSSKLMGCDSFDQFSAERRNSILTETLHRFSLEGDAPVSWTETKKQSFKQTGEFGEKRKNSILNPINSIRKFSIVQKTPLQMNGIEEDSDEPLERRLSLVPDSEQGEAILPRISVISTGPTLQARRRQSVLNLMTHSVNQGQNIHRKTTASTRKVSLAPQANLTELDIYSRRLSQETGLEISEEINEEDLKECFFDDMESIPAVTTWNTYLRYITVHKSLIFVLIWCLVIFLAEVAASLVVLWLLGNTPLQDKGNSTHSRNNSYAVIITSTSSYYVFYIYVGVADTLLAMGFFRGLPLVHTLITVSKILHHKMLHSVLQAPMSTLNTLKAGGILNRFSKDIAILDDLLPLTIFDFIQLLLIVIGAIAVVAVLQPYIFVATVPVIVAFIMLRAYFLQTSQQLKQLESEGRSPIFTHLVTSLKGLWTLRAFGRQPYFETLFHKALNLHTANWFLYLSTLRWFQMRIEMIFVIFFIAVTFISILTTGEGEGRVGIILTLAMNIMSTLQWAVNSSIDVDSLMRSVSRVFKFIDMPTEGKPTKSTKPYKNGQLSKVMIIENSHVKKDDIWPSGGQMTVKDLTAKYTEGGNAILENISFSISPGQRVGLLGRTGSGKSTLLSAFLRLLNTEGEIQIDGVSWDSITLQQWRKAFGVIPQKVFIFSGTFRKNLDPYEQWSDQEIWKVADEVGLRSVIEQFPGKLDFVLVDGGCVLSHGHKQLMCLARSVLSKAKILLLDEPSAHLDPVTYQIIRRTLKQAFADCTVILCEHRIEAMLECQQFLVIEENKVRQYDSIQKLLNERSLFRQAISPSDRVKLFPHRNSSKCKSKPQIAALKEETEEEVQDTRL

Take `COc1ccc(S(=O)(=O)N2CCN(C(C)c3nc4cc(Cl)ccc4c(=O)n3C)CC2)cc1` (stereo not drawn) [compound 93]: the concentration giving a half-maximal response (EC50) was less than 10 µM and the Emax was in the range of 25 to 100%.
The matching figures for `CC(c1nc2cc(Cl)ccc2c(=O)n1C)N1CCN(S(=O)(=O)c2ccc(Cl)cc2)CC1` (stereo not drawn) [compound 94]: less than 10 µM and 25 to 100%.
With `CC(c1nc2cc(Cl)ccc2c(=O)n1C)N1CCN(S(=O)(=O)c2ccc(Br)cc2)CC1` (stereo not drawn) [compound 95], the EC50 was less than 10 µM and the Emax was 25 to 100%.
Turning to `Cc1cccc(S(=O)(=O)N2CCN(C(C)c3nc4cc(Cl)ccc4c(=O)n3C)CC2)c1` (stereo not drawn) [compound 96], the concentration for a half-maximal effect (EC50) is less than 10 µM and the maximal response (Emax) is 25 to 100%.
With `CC(c1nc2cc(Cl)ccc2c(=O)n1C)N1CCN(S(=O)(=O)c2cccc(Cl)c2)CC1` (stereo not drawn) [compound 97], the 50% effective concentration (EC50) is less than 10 µM and the Emax lay within 25 to 100%.
Taken in the same sequence, the figures for `CC(c1nc2cc(Cl)ccc2c(=O)n1C)N1CCN(S(=O)(=O)c2ccc(C(F)(F)F)cc2)CC1` (stereo not drawn) [compound 98] were less than 10 µM and 25 to 100%.
Taken in the same sequence, the figures for `CC(c1nc2cc(Cl)ccc2c(=O)n1C)N1CCN(S(=O)(=O)c2ccc(OC(F)(F)F)cc2)CC1` (stereo not drawn) [compound 99] were less than 10 µM and 25 to 100%.
Turning to `COc1ccc(S(=O)(=O)N2CCN(C(C)c3nc4cc(Cl)ccc4c(=O)n3C)CC2)cc1OC` (stereo not drawn) [compound 100], the EC50 is 10 to 25 µM and the maximum response (Emax) was 25 to 100%.
Taken in the same sequence, the figures for `CC(c1nc2cc(Cl)ccc2c(=O)n1C)N1CCN(C(=O)c2cccc(C(F)(F)F)c2)CC1` (stereo not drawn) [compound 101] were 10 to 25 µM and 25 to 100%.
In the case of `CCc1nc2cccc(Cl)c2c(=O)n1C` [compound 102], the EC50 was 25 to 60 µM and the Emax is less than 25%.
Taken in the same sequence, the figures for `CC(c1nc2cccc(Cl)c2c(=O)n1C)N1CCN(S(=O)(=O)c2ccccc2)CC1` (stereo not drawn) [compound 103] were 10 to 25 µM and less than 25%.
In the case of `CC(c1nc2cccc(Cl)c2c(=O)n1C)N1CCN(S(=O)(=O)c2ccc(Cl)cc2)CC1` (stereo not drawn) [compound 104], the EC50 is 10 to 25 µM and the maximum response (Emax) is less than 25%.
As to `CC(c1nc2cccc(Cl)c2c(=O)n1C)N1CCN(S(=O)(=O)c2ccc(Br)cc2)CC1` (stereo not drawn) [compound 105], the EC50 fell in the range of 10 to 25 µM and the maximal effect (Emax) was 25 to 100%.
Take `COc1ccc(S(=O)(=O)N2CCN(C(C)c3nc4cccc(Cl)c4c(=O)n3C)CC2)cc1` (stereo not drawn) [compound 106]: the EC50 lay within 10 to 25 µM and the maximal effect (Emax) is less than 25%.
The matching figures for `Cc1ccc(S(=O)(=O)N2CCN(C(C)c3nc4cccc(Cl)c4c(=O)n3C)CC2)cc1` (stereo not drawn) [compound 107]: 10 to 25 µM and less than 25%.
As for `CC(c1nc2cc(Cl)ccc2c(=O)n1C)N1CCN(S(C)(=O)=O)CC1` (stereo not drawn) [compound 108], the 50% effective concentration (EC50) is 10 to 25 µM and the Emax was less than 25%.
Consider `Cc1ccccc1S(=O)(=O)N1CCN(C(C)c2nc3cc(Cl)ccc3c(=O)n2C)CC1` (stereo not drawn) [compound 109], for which the concentration for a half-maximal effect (EC50) lay in the range of 10 to 25 µM and the Emax lay in the range of 25 to 100%.
The matching figures for `CC(c1nc2cc(Cl)ccc2c(=O)n1C)N1CCN(S(=O)(=O)c2ccc(S(C)(=O)=O)cc2)CC1` (stereo not drawn) [compound 110]: 10 to 25 µM and less than 25%.
With `CC(=O)Nc1ccc(S(=O)(=O)N2CCN(C(C)c3nc4cc(Cl)ccc4c(=O)n3C)CC2)cc1` (stereo not drawn) [compound 111], the EC50 was in the range of 10 to 25 µM and the Emax is 25 to 100%.
The matching figures for `CC(c1nc2cc(Cl)ccc2c(=O)n1C)N1CCN(C(=O)Cc2ccccc2)CC1` (stereo not drawn) [compound 112]: 10 to 25 µM and less than 25%.
Taken in the same sequence, the figures for `Cc1cccc(CC(=O)N2CCN(C(C)c3nc4cc(Cl)ccc4c(=O)n3C)CC2)c1` (stereo not drawn) [compound 113] were 10 to 25 µM and less than 25%.
With `CC(c1nc2ccc(Br)cc2c(=O)n1C)N1CCN(S(=O)(=O)c2ccccc2)CC1` (stereo not drawn) [compound 114], the EC50 was 10 to 25 µM and the Emax fell in the range of 25 to 100%.
Turning to `Cc1ccc(S(=O)(=O)N2CCN(C(C)c3nc4ccc(Br)cc4c(=O)n3C)CC2)cc1` (stereo not drawn) [compound 115], the EC50 was in the range of 10 to 25 µM and the Emax was less than 25%.
Consider `COc1ccc(S(=O)(=O)N2CCN(C(C)c3nc4ccc(Br)cc4c(=O)n3C)CC2)cc1` (stereo not drawn) [compound 116], for which the half-maximal effective concentration (EC50) was less than 10 µM and the Emax lay within 25 to 100%.
Taken in the same sequence, the figures for `CC(c1nc2ccc(Br)cc2c(=O)n1C)N1CCN(S(=O)(=O)c2ccc(Cl)cc2)CC1` (stereo not drawn) [compound 117] were 10 to 25 µM and 25 to 100%.
As for `CC(c1nc2ccc(Br)cc2c(=O)n1C)N1CCN(S(=O)(=O)c2ccc(Br)cc2)CC1` (stereo not drawn) [compound 118], the 50% effective concentration (EC50) was less than 10 µM and the maximal response (Emax) is 25 to 100%.
Taken in the same sequence, the figures for `Cc1cccc(C(=O)N2CCN(C(C)c3nc4cc(Cl)ccc4c(=O)n3C)CC2)c1` (stereo not drawn) [compound 119] were 10 to 25 µM and 25 to 100%.
Taken in the same sequence, the figures for `Cc1ccc(C(=O)N2CCN(C(C)c3nc4cc(Cl)ccc4c(=O)n3C)CC2)cc1` (stereo not drawn) [compound 120] were 10 to 25 µM and less than 25%.
The matching figures for `CC(c1nc2cc(Cl)ccc2c(=O)n1C)N1CCN(C(=O)c2ccc(F)cc2)CC1` (stereo not drawn) [compound 121]: 10 to 25 µM and less than 25%.
`COc1ccc(C(=O)N2CCN(C(C)c3nc4cc(Cl)ccc4c(=O)n3C)CC2)cc1` (stereo not drawn) [compound 122]: the EC50 lay within 10 to 25 µM and the Emax was less than 25%.
The matching figures for `CC(c1nc2ccc(C#N)cc2c(=O)n1C)N1CCN(S(=O)(=O)c2ccccc2)CC1` (stereo not drawn) [compound 123]: 10 to 25 µM and less than 25%.
Taken in the same sequence, the figures for `COc1ccc(S(=O)(=O)N2CCN(C(C)c3nc4ccc(C#N)cc4c(=O)n3C)CC2)cc1` (stereo not drawn) [compound 124] were 10 to 25 µM and 25 to 100%.
Taken in the same sequence, the figures for `Cc1ccc(S(=O)(=O)N2CCN(C(C)c3nc4ccc(C#N)cc4c(=O)n3C)CC2)cc1` (stereo not drawn) [compound 125] were 10 to 25 µM and 25 to 100%.
Consider `CC(c1nc2ccc(C#N)cc2c(=O)n1C)N1CCN(S(=O)(=O)c2ccc(Cl)cc2)CC1` (stereo not drawn) [compound 126], for which the EC50 lay in the range of 10 to 25 µM and the Emax lay within 25 to 100%.
As to `CC(c1nc2ccccc2c(=O)[nH]1)N1CCN(S(=O)(=O)c2ccc(Br)cc2)CC1` (stereo not drawn) [compound 127], the 50% effective concentration (EC50) is 10 to 25 µM and the maximal effect (Emax) is 25 to 100%.
The matching figures for `CC(c1nc2ccccc2c(=O)[nH]1)N1CCN(S(=O)(=O)c2ccccc2)CC1` (stereo not drawn) [compound 128]: 10 to 25 µM and less than 25%.
The matching figures for `Cc1ccc(S(=O)(=O)N2CCN(C(C)c3nc4ccccc4c(=O)[nH]3)CC2)cc1` (stereo not drawn) [compound 129]: 10 to 25 µM and less than 25%.
The matching figures for `COc1ccc(S(=O)(=O)N2CCN(C(C)c3nc4ccccc4c(=O)[nH]3)CC2)cc1` (stereo not drawn) [compound 130]: 10 to 25 µM and less than 25%.
`CC(c1nc2ccccc2c(=O)[nH]1)N1CCN(S(=O)(=O)c2ccc(Cl)cc2)CC1` (stereo not drawn) [compound 131]: the half-maximal effective concentration (EC50) lay in the range of 10 to 25 µM and the Emax is less than 25%.
Taken in the same sequence, the figures for `COc1ccc2nc(C(C)N3CCN(S(=O)(=O)c4ccc(Br)cc4)CC3)n(C)c(=O)c2c1` (stereo not drawn) [compound 132] were less than 10 µM and greater than 100%.
As for `COc1ccc2nc(C(C)N3CCN(S(=O)(=O)c4ccccc4)CC3)n(C)c(=O)c2c1` (stereo not drawn) [compound 133], the concentration for a half-maximal effect (EC50) was in the range of 10 to 25 µM and the maximal effect (Emax) is 25 to 100%.
Regarding `COc1ccc2nc(C(C)N3CCN(S(=O)(=O)c4ccc(C)cc4)CC3)n(C)c(=O)c2c1` (stereo not drawn) [compound 134], the EC50 fell in the range of 10 to 25 µM and the Emax fell in the range of 25 to 100%.
The matching figures for `COc1ccc(S(=O)(=O)N2CCN(C(C)c3nc4ccc(OC)cc4c(=O)n3C)CC2)cc1` (stereo not drawn) [compound 135]: 10 to 25 µM and 25 to 100%.
The matching figures for `COc1ccc2nc(C(C)N3CCN(S(=O)(=O)c4ccc(Cl)cc4)CC3)n(C)c(=O)c2c1` (stereo not drawn) [compound 136]: less than 10 µM and greater than 100%.
In the case of `COc1ccc(S(=O)(=O)N2CCN(Cc3nc4ccc(Cl)cc4c(=O)n3C)CC2)cc1` [compound 137], the concentration for a half-maximal effect (EC50) lay in the range of 10 to 25 µM and the Emax was in the range of 25 to 100%.

The record behind these values is patent US8642609B2, “Modulators of ATP-binding cassette transporters” (Vertex Pharmaceuticals Incorporated, priority 2003, dated 2014).
